The subject of this test is CD2F1 mice, L1210 leukemia ip, survival T/C. Description: NCI In Vivo Anticancer Drug Screen. Data for tumor model L1210 Leukemia (intraperitoneal) in CD2F1 (CDF1) mice. Conditions: higher = longer survival. An outline of the steps: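 Mice carrying a transplanted tumor received test compound or vehicle alone. The value is the measurement in the treated group divided by that in the vehicle-treated control group.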

The mark [1] stands for this setting: endpoint: mean survival time, dose: 12.5 mg/kg/injection, schedule: Q01DX005 (ip), vehicle: distilled water + Tween-80.
The mark [2] stands for this setting: endpoint: mean survival time, dose: 25.0 mg/kg/injection, schedule: Q01DX005 (ip), vehicle: distilled water + Tween-80.
[3] abbreviates: endpoint: mean survival time, dose: 50.0 mg/kg/injection, schedule: Q01DX005 (ip), vehicle: distilled water + Tween-80.
[4] abbreviates: endpoint: mean survival time, dose: 100.0 mg/kg/injection, schedule: Q01DX005 (ip), vehicle: distilled water + Tween-80.
Setting [5] is: endpoint: mean survival time, dose: 200.0 mg/kg/injection, schedule: Q01DX005 (ip), vehicle: distilled water + Tween-80.
The mark [6] stands for this setting: endpoint: mean survival time, dose: 100.0 mg/kg/injection, schedule: Q04DX003 (ip), vehicle: saline with Tween-80.
Setting [7] is: endpoint: mean survival time, dose: 400.0 mg/kg/injection, schedule: Q04DX003 (ip), vehicle: saline with Tween-80.
[8] abbreviates: endpoint: mean survival time, dose: 100.0 mg/kg/injection, schedule: Q01DX001 (ip), vehicle: saline.
Where [9] appears, read: endpoint: mean survival time, dose: 200.0 mg/kg/injection, schedule: Q01DX001 (ip), vehicle: saline.

Results on 19 compounds are retold here after PubChem BioAssay AID256 (DTP/NCI, 2004).

Structures are written as SMILES. Where “and” joins values, the source holds several entries; their conditions need not be identical. Equal entries are not always repeated. Toxic doses and inconclusive results are not listed.

Turning to `CN(Cc1cnc2nc(N)nc(N)c2n1)c1c(Cl)cc(C(=O)NC(CCC(=O)O)C(=O)O)cc1Cl` (stereo not given), the T/C runs as follows: (endpoint: mean survival time, dose: 44.0 mg/kg/injection, schedule: Q01DX009 (ip), vehicle: sodium bicarbonate) 224 % of control; (endpoint: mean survival time, dose: 67.0 mg/kg/injection, schedule: Q01DX009 (ip), vehicle: sodium bicarbonate) 256 % of control; (endpoint: mean survival time, dose: 100.0 mg/kg/injection, schedule: Q01DX009 (ip), vehicle: sodium bicarbonate) 193 % of control; (endpoint: mean survival time, dose: 133.0 mg/kg/injection, schedule: Q01DX009 (ip), vehicle: sodium bicarbonate) 170 % of control; (endpoint: mean survival time, dose: 150.0 mg/kg/injection, schedule: Q01DX009 (ip), vehicle: sodium bicarbonate) 116 % of control; (endpoint: mean survival time, dose: 160.0 mg/kg/injection, schedule: Q01DX009 (ip), vehicle: sodium bicarbonate) 123 % of control. Also, the T/C was 123 % of control (endpoint: median survival time, dose: 125.0 mg/kg/injection, schedule: Q01DX009 (ip), vehicle: sodium bicarbonate) and 112 % of control (endpoint: median survival time, dose: 150.0 mg/kg/injection, schedule: Q01DX009 (ip), vehicle: sodium bicarbonate).

Turning to `CCCc1nc2[nH]cnc(=S)c2[nH]1`, the T/C (endpoint: mean survival time, dose: 12.5 mg/kg/injection, schedule: Q01DX005 (ip), vehicle: other) was 110 % of control; the T/C (endpoint: mean survival time, dose: 25.0 mg/kg/injection, schedule: Q01DX005 (ip), vehicle: other) is 108 % of control; the T/C (endpoint: mean survival time, dose: 50.0 mg/kg/injection, schedule: Q01DX005 (ip), vehicle: other) was 96 % of control.

Take `COC1CCC(/C=C(\C#N)C2CCC([N+](=O)[O-])CC2)CC1Br` (stereo not given): the T/C runs as follows: (endpoint: mean survival time, dose: 25.0 mg/kg/injection, schedule: Q04DX002 (ip), vehicle: saline with Tween-80) 105 % of control; (endpoint: mean survival time, dose: 50.0 mg/kg/injection, schedule: Q04DX002 (ip), vehicle: saline with Tween-80) 96 % of control.

With `O=C(c1ccccc1)C(CC[P+](c1ccccc1)(c1ccccc1)c1ccccc1)(OBr)c1ccccc1` (stereo not given), the T/C (endpoint: mean survival time, dose: 6.25 mg/kg/injection, schedule: Q01DX001 (ip), vehicle: saline with Tween-80) is 112 % of control; the T/C (endpoint: mean survival time, dose: 12.5 mg/kg/injection, schedule: Q01DX001 (ip), vehicle: saline with Tween-80) was 97 % of control; the T/C (endpoint: mean survival time, dose: 25.0 mg/kg/injection, schedule: Q01DX001 (ip), vehicle: saline with Tween-80) was 101 % of control.

`CCN(CC)c1nc2c(c(=O)n(C)c(=O)n2C)n1CCCNCC(O)c1ccc(O)c(O)c1` (stereo not given): the T/C was 96 % of control under setting [1]; 103 % of control under setting [2]; 97 % of control under setting [3]; 105 % of control under setting [4]; 100 % of control under setting [5].

For `c1ccc([I+]c2ccccc2)cc1`, the T/C was 98 % of control (endpoint: mean survival time, dose: 0.65 mg/kg/injection, schedule: Q01DX009 (ip), vehicle: saline with Tween-80); 98 % of control (endpoint: mean survival time, dose: 1.3 mg/kg/injection, schedule: Q01DX009 (ip), vehicle: saline with Tween-80); 103 % of control (endpoint: mean survival time, dose: 2.5 mg/kg/injection, schedule: Q01DX009 (ip), vehicle: saline sonified); 98 % of control (endpoint: mean survival time, dose: 2.5 mg/kg/injection, schedule: Q01DX009 (ip), vehicle: saline with Tween-80); 95 % of control (endpoint: mean survival time, dose: 2.5 mg/kg/injection, schedule: Q04DX003 (ip), vehicle: saline with Tween-80); 94 % of control (endpoint: mean survival time, dose: 5.0 mg/kg/injection, schedule: Q01DX009 (ip), vehicle: saline sonified). The T/C was 104 % of control (endpoint: mean survival time, dose: 5.0 mg/kg/injection, schedule: Q04DX003 (ip), vehicle: saline with Tween-80); 98 % of control (endpoint: mean survival time, dose: 5.0 mg/kg/injection, schedule: Q04DX003 (ip), vehicle: saline); 103 % of control (endpoint: mean survival time, dose: 10.0 mg/kg/injection, schedule: Q04DX003 (ip), vehicle: saline with Tween-80); 97 % of control (endpoint: mean survival time, dose: 10.0 mg/kg/injection, schedule: Q04DX003 (ip), vehicle: saline); 115 % of control (endpoint: mean survival time, dose: 20.0 mg/kg/injection, schedule: Q04DX003 (ip), vehicle: saline).

For `CC(=O)OC(N=Nc1ccccc1)(c1ccccc1)c1ccccc1`, the T/C by setting is: under setting [6], 98 % of control; (endpoint: mean survival time, dose: 200.0 mg/kg/injection, schedule: Q04DX003 (ip), vehicle: saline with Tween-80) 92 % of control; under setting [7], 93 % of control.

Turning to `Cn1c(=O)c2[nH]c(-c3cccnc3)nc2n(C)c1=O`, the T/C is, setting by setting: under setting [1], 92 % of control; under setting [2], 98 % of control; under setting [3], 98 % of control; under setting [4], 98 % of control; under setting [5], 116 % of control.

`CSc1ccc(C(c2ccc(SC)cc2)C(Cl)(Cl)Cl)cc1`: the T/C (endpoint: mean survival time, dose: 50.0 mg/kg/injection, schedule: Q04DX003 (ip), vehicle: saline with Tween-80) was 91 % of control and the T/C under setting [6] is 89 % of control.

For the compound `COC(=O)C[As+](c1ccccc1)(c1ccccc1)c1ccccc1`, the T/C runs as follows: (endpoint: mean survival time, dose: 75.0 mg/kg/injection, schedule: Q01DX001 (ip), vehicle: other) 97 % of control; (endpoint: mean survival time, dose: 75.0 mg/kg/injection, schedule: Q01DX001 (ip), vehicle: saline) 103 % of control; (endpoint: mean survival time, dose: 150.0 mg/kg/injection, schedule: Q01DX001 (ip), vehicle: other) 91 % of control; (endpoint: mean survival time, dose: 150.0 mg/kg/injection, schedule: Q01DX001 (ip), vehicle: saline) 94 % of control.

As to `CCCCCCCCCCCCCCCCC1CCC2CCCCC12` (stereo not given), the T/C is 104 % of control (endpoint: mean survival time, dose: 100.0 mg/kg/injection, schedule: Q01DX001 (ip), vehicle: saline with Tween-80); 107 % of control (endpoint: mean survival time, dose: 200.0 mg/kg/injection, schedule: Q01DX001 (ip), vehicle: saline with Tween-80); 97 % of control (endpoint: mean survival time, dose: 400.0 mg/kg/injection, schedule: Q01DX001 (ip), vehicle: saline with Tween-80).

As to `CN(C)c1ccc(N=Nc2ccc(S(=O)(=O)O)cc2)cc1.CN(C)c1ccc(N=Nc2ccc(S(=O)(=O)O)cc2)cc1.[NH-]C1CCCCC1[NH-].[Pt+2]`, the T/C reads like this: (endpoint: median survival time, dose: 3.12 mg/kg/injection, schedule: Q04DX003 (ip), vehicle: saline) 121 % of control and 107 % of control; (endpoint: median survival time, dose: 6.25 mg/kg/injection, schedule: Q04DX003 (ip), vehicle: saline) 109 % of control; (endpoint: median survival time, dose: 100.0 mg/kg/injection, schedule: Q04DX003 (ip), vehicle: saline) 105 % of control; (endpoint: median survival time, dose: 200.0 mg/kg/injection, schedule: Q04DX003 (ip), vehicle: saline) 116 % of control.

`O=C(O)c1ccccc1C(=O)Nc1ccc([N+](=O)[O-])cc1`: the T/C runs as follows: under setting [6], 98 % of control; under setting [7], 91 % of control.

For the compound `OC(CN(C1CCCCC1)C1CCCCC1)c1ccc(Cl)c(Cl)c1` (stereo not given), the T/C was 95 % of control under setting [8]; 95 % of control (endpoint: mean survival time, dose: 100.0 mg/kg/injection, schedule: Q04DX003 (ip), vehicle: saline); 91 % of control under setting [9]; 98 % of control (endpoint: mean survival time, dose: 200.0 mg/kg/injection, schedule: Q04DX003 (ip), vehicle: saline); 96 % of control (endpoint: mean survival time, dose: 400.0 mg/kg/injection, schedule: Q01DX001 (ip), vehicle: saline); 101 % of control (endpoint: mean survival time, dose: 400.0 mg/kg/injection, schedule: Q04DX003 (ip), vehicle: saline).

Turning to `Cc1noc(N)c1N`, the T/C reads like this: (endpoint: median survival time, dose: 12.5 mg/kg/injection, schedule: Q01DX009 (ip), vehicle: water) 98 % of control; (endpoint: median survival time, dose: 25.0 mg/kg/injection, schedule: Q01DX009 (ip), vehicle: water) 100 % of control; (endpoint: median survival time, dose: 50.0 mg/kg/injection, schedule: Q01DX009 (ip), vehicle: water) 100 % of control; (endpoint: median survival time, dose: 100.0 mg/kg/injection, schedule: Q01DX009 (ip), vehicle: water) 113 % of control and 104 % of control and 110 % of control; (endpoint: median survival time, dose: 150.0 mg/kg/injection, schedule: Q01DX009 (ip), vehicle: water) 109 % of control.

With `O=C(CCC(=O)NO)NO`, the T/C was 101 % of control (endpoint: mean survival time, dose: 100.0 mg/kg/injection, schedule: Q04DX002 (ip), vehicle: saline) and 90 % of control (endpoint: mean survival time, dose: 200.0 mg/kg/injection, schedule: Q04DX002 (ip), vehicle: saline).

With `COc1cc(C(=O)CC2CCCCN2)ccc1O` (stereo not given), the T/C reads like this: (endpoint: mean survival time, dose: 50.0 mg/kg/injection, schedule: Q01DX Z (ip), vehicle: saline) 98 % of control; (endpoint: mean survival time, dose: 100.0 mg/kg/injection, schedule: Q01DX Z (ip), vehicle: saline) 96 % of control; (endpoint: mean survival time, dose: 200.0 mg/kg/injection, schedule: Q01DX Z (ip), vehicle: saline) 100 % of control.

`CCOC(=S)SCCSC`: the T/C reads like this: under setting [8], 103 % of control; under setting [9], 98 % of control.

On to `O=C1c2ccccc2C(=O)c2cc(NS(=O)(=O)C(F)(F)F)ccc21`, for which the T/C under setting [8] is 96 % of control and the T/C under setting [9] is 100 % of control.
